These results are taken from US20180369203A1, “METHODS OF TREATING CANCER BY ADMINISTERING A MEK INHIBITOR IN COMBINATION WITH A PROTEASOME INHIBITOR” (The Jackson Laboratory, priority 2015, published 2018).

Holding throughout (assay type): cell-based
Assay [1] deals with polyQ79-expressing cells. Kind of assay: ThT and CR staining of polyQ79-expressing cells (flow cytometry). The note with it: HEK293T; 20 nM AZD6244, 100 nM Bortezomib, or both. Here is the method:
(§1) FIGS. 5A-Y show MEK and proteasome inhibition provoke protein aggregation and amyloidogenesis. (A-B) WM115 cells treated with 20 nM AZD6244, 100 nM Bortezomib, or both for 24 hr were stained with Lys48-specific ubiquitin antibodies. Arrowheads mark ubiquitin-positive aggregates. Scale bar: 10 μm. Amounts of aggregates per cell were quantitated using ImageJ (median, n≥100, ANOVA). (C-F) Following transfection with polyQ79 plasmids alone or with both polyQ79 and HSF1^S326D plasmids for one day, HEK293T cells were treated with inhibitors as described in (A-B). Cells were either analyzed for aggregate size or stained with 10 μM ThT. (G) Treated tumor cell lines were stained with 10 μM ThT. Geometric means were used to calculate fold changes in ThT fluorescence intensity and the log 2(FC) values were presented as a heat map. (H) HEK293T cells were transfected with LacZ or polyQ79 plasmid. Following treatments, AOs were quantitated by ELISA using A11 antibodies (mean±SD, n=3, ANOVA). (I) Intrinsic AOs were detected in human tumor cell lines (mean±SD, n=3, ANOVA). […] Amyloids were quantitated by ELISA (mean±SD, n=3, Student's t-test). […] AF formation was monitored by ThT binding (mean±SD, n=3, ANOVA). […] Amyloids were quantitated (mean±SD, n=3, Student's t-test). […] Viable cells were quantitated by CellTiter® blue (mean±SD, n=6, Student's t-test). […] Viable cells were quantitated (mean±SD, n=6, ANOVA). […]
For orientation: Flow cytometry measures light scatter and fluorescence of single cells or particles in a stream.

The test system of assay [2] is polyQ79. Kind of assay: polyQ79 aggregate size in HEK293T cells (Coulter counter). Conditions: 20 nM AZD6244, 100 nM Bortezomib, or both. Here is the method:
as §1

Assay [3] relates to GR-GFP. Kind of assay: GR-GFP protein stability in HEK293T cells (immunoblotting). Conditions: 100 nM Bortezomib, 4 hrs. The source says: This figure is related to FIG. 4. (A) HSF1 stabilizes GR-GFP proteins. Both GR-GFP and HA-Ub-K48 plasmids were co-transfected with LacZ or FLAG-HSF1 plasmids into HEK293T cells stably expressing scramble or HSF1-targeting shRNAs. HA-Ub-K48 plasmids encode a mutant ubiquitin that can be conjugated to protein substrates only via lysine 48. GFP-GR proteins were precipitated and ubiquitination was detected by anti-HA immunoblotting. (B) HSF1 maintains cellular chaperoning capacity. Denatured firefly luciferases were incubated with proteins extracted from HEK293T cells stably expressing scramble or HSF1-targeting shRNAs that were transfected with LacZ or FLAG-HSF1 plasmids (mean±SD, n=5, ANOVA). […] Levels of GFP and GR-GFP proteins were detected by immunoblotting. […] Following treatments with 20 μM U0126, 20 nM AZD6244, or 100 nM Bortezomib for 4 hrs, the chymotrypsin-like, trypsin-like, and caspase-like proteasomal activities in A2058 cells (D) and HEK293T cells (E) were measured in vitro using 25 μM Z-LLL-AMC, Boc-LRR-AMC, and Z-LLE-AMC substrates respectively (mean±SD, n=3, ANOVA). […] Lys48-specific protein ubiquitination was detected by immunoblotting in both detergent-soluble and -insoluble fractions. […] Lys48-specific protein ubiquitination was detected by immunoblotting in both detergent-soluble and -insoluble fractions of HEK293T cells that stably expressed scramble or MEK1/2-targeting shRNAs. […]

In the case of `CC(C)C[C@H](NC(=O)[C@H](Cc1ccccc1)NC(=O)c1cnccn1)B(O)O` [Bortezomib, bortezomib], the “ThT and CR staining of polyQ79-expressing cells” value in assay [1] is reported as “further intensified”. The polyQ79 aggregate size entry in assay [2] was “enhanced”. Moreover, the GR-GFP protein level entry in assay [3] is “caused GR-GFP accumulation”.
